In ChEMBL document CHEMBL1201862, “PubChem BioAssay data set” (2004):
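Results reflect a 48-hour exposure of cells in 96-well plates to compound at five concentrations. GI50 marks 50% less growth.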 Calls of active or inactive are those of the source. Rule as the data show it: active = GI50 up to about 1.1 µM and inactive = higher.

What was measured:
Assay in all cases: NCI tumour cell line growth inhibition, 48 h
SF-295 = tested on: SF-295
DLD-1 = tested on: DLD-1
SF-268 = tested on: SF-268
OVCAR-5 = tested on: OVCAR-5
M14 = tested on: M14
KM12 = tested on: KM12
U-251 = tested on: U-251
HOP-18 = tested on: HOP-18
OVCAR-4 = tested on: OVCAR-4
LXFL 529 = tested on: LXFL 529
SK-MEL-28 = tested on: SK-MEL-28
HCC 2998 = tested on: HCC 2998
TK-10 = tested on: TK-10
HCT-116 = tested on: HCT-116
DMS-114 = tested on: DMS-114
SNB-75 = tested on: SNB-75
ACHN = tested on: ACHN
OVCAR-3 = tested on: OVCAR-3
HL-60 = tested on: HL-60
A498 = tested on: A498
NCI-H460 = tested on: NCI-H460
CAKI-1 = tested on: CAKI-1
OVCAR-8 = tested on: OVCAR-8
SF-539 = tested on: SF-539
786-0 = tested on: 786-0
XF498 = tested on: XF498
SNB-78 = tested on: SNB-78
DMS-273 = tested on: DMS-273
SK-MEL-2 = tested on: SK-MEL-2
UACC-257 = tested on: UACC-257
EKVX = tested on: EKVX
COLO 205 = tested on: COLO 205
IGROV-1 = tested on: IGROV-1
RPMI-8226 = tested on: RPMI-8226
RXF 631 = tested on: RXF 631
UO-31 = tested on: UO-31
HT-29 = tested on: HT-29
A549 = tested on: A549
RXF 393 = tested on: RXF 393
SR = tested on: SR
HCT-15 = tested on: HCT-15
MOLT-4 = tested on: MOLT-4
NCI-H522 = tested on: NCI-H522
CCRF-CEM = tested on: CCRF-CEM
LOX IMVI = tested on: LOX IMVI
SK-OV-3 = tested on: SK-OV-3
K562 = tested on: K562
NCI-H226 = tested on: NCI-H226
M19-MEL = tested on: M19-MEL
SK-MEL-5 = tested on: SK-MEL-5
UACC-62 = tested on: UACC-62
SNB-19 = tested on: SNB-19
SN12C = tested on: SN12C
Malme-3M = tested on: Malme-3M
KM-20L2 = tested on: KM-20L2
HOP-62 = tested on: HOP-62
HOP-92 = tested on: HOP-92
NCI-H23 = tested on: NCI-H23
SW-620 = tested on: SW-620
MDA-MB-231 = tested on: MDA-MB-231
MCF7 = tested on: MCF7
Hs-578T = tested on: Hs-578T
NCI/ADR-RES = tested on: NCI/ADR-RES
PC-3 = tested on: PC-3
MDA-N = tested on: MDA-N
BT-549 = tested on: BT-549
DU-145 = tested on: DU-145
T47D = tested on: T47D
MDA-MB-435 = tested on: MDA-MB-435

Measured: GI50

CCOC(=O)CC(C)C1(C(=O)OCC)CCCCC1=O (configuration not stated)
inactive: SF-295 > 100 µM | DLD-1 35 µM | SF-268 > 100 µM | OVCAR-5 > 100 µM | M14 > 100 µM | KM12 > 100 µM | U-251 > 100 µM | HOP-18 > 100 µM | OVCAR-4 > 100 µM | LXFL 529 > 100 µM | SK-MEL-28 > 100 µM | HCC 2998 > 100 µM | TK-10 > 100 µM | HCT-116 46 µM | DMS-114 20.3 µM | SNB-75 > 100 µM | ACHN > 100 µM | OVCAR-3 > 100 µM | HL-60 > 100 µM | A498 > 100 µM | NCI-H460 > 100 µM | CAKI-1 > 100 µM | OVCAR-8 > 100 µM | SF-539 > 100 µM | 786-0 55 µM | XF498 > 100 µM | SNB-78 > 100 µM | DMS-273 15 µM | SK-MEL-2 > 100 µM | UACC-257 > 100 µM | EKVX > 100 µM | COLO 205 86.7 µM | IGROV-1 > 100 µM | RPMI-8226 25.5 µM | RXF 631 > 100 µM | UO-31 > 100 µM | HT-29 > 100 µM | A549 > 100 µM | RXF 393 > 100 µM | SR 25.6 µM | MOLT-4 > 100 µM | NCI-H522 > 100 µM | CCRF-CEM > 100 µM | LOX IMVI 67.3 µM | SK-OV-3 > 100 µM | K562 > 100 µM | NCI-H226 > 100 µM | M19-MEL > 100 µM | SK-MEL-5 > 100 µM | UACC-62 > 100 µM | SNB-19 > 100 µM | SN12C > 100 µM | Malme-3M > 100 µM | KM-20L2 98.9 µM | HOP-62 > 100 µM
22.9 µM: HCT-15

CC1=CC=C2C(C)(C)CC[C@@H]3OC(=O)[C@H]1[C@]23C
inactive: SF-295 > 100 µM | DLD-1 > 100 µM | SF-268 > 100 µM | OVCAR-5 > 100 µM | M14 > 100 µM | KM12 > 100 µM | U-251 > 100 µM | HOP-18 > 100 µM | OVCAR-4 > 100 µM | LXFL 529 > 100 µM | SK-MEL-28 > 100 µM | HCC 2998 > 100 µM | TK-10 > 100 µM | HCT-116 > 100 µM | DMS-114 > 100 µM | SNB-75 > 100 µM | HOP-92 > 100 µM | ACHN > 100 µM | OVCAR-3 > 100 µM | HL-60 > 100 µM | NCI-H23 > 100 µM | A498 > 100 µM | CAKI-1 > 100 µM | OVCAR-8 > 100 µM | SF-539 > 100 µM | 786-0 > 100 µM | XF498 > 100 µM | SNB-78 37.1 µM | DMS-273 > 100 µM | SK-MEL-2 15.5 µM | UACC-257 > 100 µM | EKVX > 100 µM | COLO 205 > 100 µM | IGROV-1 > 100 µM | RXF 631 > 100 µM | UO-31 > 100 µM | HT-29 > 100 µM | A549 > 100 µM | SW-620 > 100 µM | RXF 393 > 100 µM | SR > 100 µM | MOLT-4 > 100 µM | NCI-H522 > 100 µM | CCRF-CEM > 100 µM | LOX IMVI > 100 µM | SK-OV-3 > 100 µM | K562 > 100 µM | NCI-H226 > 100 µM | M19-MEL > 100 µM | SK-MEL-5 > 100 µM | UACC-62 > 100 µM | SNB-19 > 100 µM | SN12C > 100 µM | Malme-3M > 100 µM | KM-20L2 > 100 µM | HOP-62 > 100 µM

COc1ccc(Cc2c3cc(O)c([O-])cc3cc[n+]2C)cc1
inactive: SF-295 19.9 µM | DLD-1 10.6 µM | SF-268 13.5 µM | OVCAR-5 33.7 µM | M14 11.4 µM | KM12 40.2 µM | U-251 12.7 µM | HOP-18 36.1 µM | OVCAR-4 51.3 µM | SK-MEL-28 22.3 µM | HCC 2998 42.6 µM | TK-10 98.4 µM | HCT-116 19.4 µM | DMS-114 12.8 µM | SNB-75 48.2 µM | HOP-92 47.9 µM | ACHN 6.93 µM | OVCAR-3 27.7 µM | HL-60 16.3 µM | NCI-H23 29.8 µM | A498 42 µM | NCI-H460 5.68 µM | CAKI-1 8.55 µM | OVCAR-8 29 µM | SF-539 19.1 µM | 786-0 10.2 µM | XF498 18.4 µM | SNB-78 > 100 µM | DMS-273 16.5 µM | SK-MEL-2 65.9 µM | UACC-257 28.4 µM | EKVX > 73.6 µM | COLO 205 39.1 µM | IGROV-1 30.3 µM | RPMI-8226 28.4 µM | RXF 631 6.49 µM | UO-31 9.95 µM | HT-29 52.7 µM | A549 30.8 µM | SW-620 36.1 µM | RXF 393 11.8 µM | SR 5.86 µM | MOLT-4 10.2 µM | NCI-H522 23.3 µM | CCRF-CEM 4.95 µM | LOX IMVI 13.3 µM | SK-OV-3 41.5 µM | K562 6.61 µM | NCI-H226 25.7 µM | M19-MEL 20.7 µM | SK-MEL-5 20.6 µM | UACC-62 23.9 µM | SNB-19 35 µM | SN12C 21 µM | Malme-3M 30.7 µM | KM-20L2 51.1 µM | HOP-62 10.3 µM

N#Cc1cc([N+](=O)[O-])ccc1NC(=O)/C(=N\NC(=O)c1ccncc1)C(c1cnc2ccc([N+](=O)[O-])cc2n1)[N+](=O)[O-] (configuration not stated)
inactive: MDA-MB-231 1.99 µM | SF-295 1.78 µM | SF-268 2.86 µM | OVCAR-5 9.4 µM | M14 1.63 µM | KM12 2.39 µM | MCF7 1.55 µM | U-251 2.15 µM | HOP-18 1.5 µM | OVCAR-4 2.09 µM | LXFL 529 1.57 µM | SK-MEL-28 2.17 µM | HCC 2998 9.27 µM | TK-10 14.2 µM | HCT-116 2.43 µM | DMS-114 1.6 µM | SNB-75 1.99 µM | HOP-92 9.18 µM | Hs-578T 2.26 µM | ACHN 2.54 µM | OVCAR-3 1.64 µM | HL-60 3.51 µM | A498 8.49 µM | NCI-H460 2.13 µM | CAKI-1 5.98 µM | OVCAR-8 3.1 µM | SF-539 2.07 µM | 786-0 2.44 µM | XF498 1.69 µM | SNB-78 6.34 µM | DMS-273 1.82 µM | SK-MEL-2 1.75 µM | UACC-257 1.55 µM | EKVX 9.31 µM | COLO 205 5.69 µM | IGROV-1 3.78 µM | RPMI-8226 5.89 µM | RXF 631 2.32 µM | UO-31 2.31 µM | NCI/ADR-RES 6.41 µM | HT-29 19.2 µM | A549 3.64 µM | SW-620 2.4 µM | PC-3 3.33 µM | RXF 393 4.44 µM | SR 4.24 µM | MOLT-4 7.23 µM | NCI-H522 1.8 µM | CCRF-CEM 3.38 µM | SK-OV-3 8.02 µM | BT-549 1.85 µM | K562 2.02 µM | NCI-H226 2.45 µM | UACC-62 1.52 µM | DU-145 5.64 µM | SNB-19 2.83 µM | SN12C 1.85 µM | Malme-3M 1.31 µM | T47D 3.37 µM | KM-20L2 4.26 µM | HOP-62 2.81 µM
2.03 µM: HCT-15
active: NCI-H23 0.91 µM | MDA-N 0.512 µM | LOX IMVI 0.759 µM | M19-MEL 0.566 µM | SK-MEL-5 0.869 µM | MDA-MB-435 1.03 µM
